Measured values taken from ChEMBL document CHEMBL1201862, “PubChem BioAssay data set” (2004).
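Each compound was tested at five concentrations against cells in 96-well plates for 48 hours. At the GI50, growth is halved.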 The source made the active and inactive calls. Rule as the data show it: active = GI50 up to about 1.1 µM and inactive = higher.

Experiments:
Assay in all cases: inhibition of tumour cell growth, NCI panel, 48 h
DU-145 = tested on: DU-145
MDA-N = tested on: MDA-N
SK-MEL-28 = tested on: SK-MEL-28
SF-268 = tested on: SF-268
NCI-H460 = tested on: NCI-H460
MCF7 = tested on: MCF7
SK-MEL-2 = tested on: SK-MEL-2
NCI-H23 = tested on: NCI-H23
SNB-75 = tested on: SNB-75
HCC 2998 = tested on: HCC 2998
NCI/ADR-RES = tested on: NCI/ADR-RES
A498 = tested on: A498
SK-OV-3 = tested on: SK-OV-3
SK-MEL-5 = tested on: SK-MEL-5
HT-29 = tested on: HT-29
COLO 205 = tested on: COLO 205
K562 = tested on: K562
SNB-19 = tested on: SNB-19
OVCAR-4 = tested on: OVCAR-4

Measured: GI50

COC(=O)NC(Nc1ccc(C)cc1)(C(F)(F)F)C(F)(F)F
inactive: DU-145 > 100 µM | MDA-N > 100 µM | SK-MEL-28 > 100 µM | SF-268 > 100 µM | NCI-H460 > 100 µM | MCF7 > 100 µM | SK-MEL-2 > 100 µM | NCI-H23 > 100 µM | SNB-75 > 100 µM | HCC 2998 > 100 µM | NCI/ADR-RES > 100 µM | A498 > 100 µM | SK-OV-3 > 100 µM | SK-MEL-5 > 100 µM | HT-29 > 100 µM | COLO 205 > 100 µM | K562 > 100 µM | SNB-19 > 100 µM

COc1cc(NS(C)(=O)=O)ccc1Nc1ccnc2ccc3[nH]ccc3c12
inactive: DU-145 14.4 µM | MDA-N 16.2 µM | SK-MEL-28 16.6 µM | SF-268 11 µM | NCI-H460 18.2 µM | MCF7 15.6 µM | SK-MEL-2 16.7 µM | NCI-H23 13.7 µM | OVCAR-4 14.3 µM | NCI/ADR-RES > 100 µM | A498 16.8 µM | SK-MEL-5 15.3 µM | HT-29 16.8 µM | COLO 205 17 µM | K562 10.9 µM | SNB-19 15.5 µM

O=C(O)CNC(=O)c1ccc([As](=O)(O)O)cc1
inactive: DU-145 > 100 µM | MDA-N > 100 µM | SK-MEL-28 > 100 µM | SF-268 > 100 µM | NCI-H460 > 100 µM | MCF7 > 100 µM | SK-MEL-2 > 100 µM | NCI-H23 > 100 µM | SNB-75 > 100 µM | OVCAR-4 > 100 µM | NCI/ADR-RES > 100 µM | A498 > 100 µM | SK-OV-3 > 100 µM | SK-MEL-5 > 100 µM | HT-29 > 100 µM | COLO 205 > 100 µM | K562 > 100 µM | SNB-19 > 100 µM

COc1ccc2c(c1)/C(=C\c1c(C)nc3n1CCS3)C(=O)N2
inactive: DU-145 39.1 µM | MDA-N 3.29 µM | SK-MEL-28 46.8 µM | NCI-H460 20 µM | MCF7 27.6 µM | SK-MEL-2 29 µM | NCI-H23 24.5 µM | SNB-75 28.1 µM | HCC 2998 19.2 µM | NCI/ADR-RES 26.8 µM | A498 17.8 µM | SK-OV-3 19.7 µM | SK-MEL-5 34 µM | HT-29 12.6 µM | COLO 205 9.42 µM | K562 10.3 µM | SNB-19 33.8 µM

O=C(C1OC1c1ccc(Br)cc1O)C12CC3CC(CC(C3)C1)C2 (stereo not drawn)
inactive: DU-145 42 µM | MDA-N 17 µM | SK-MEL-28 19.4 µM | SF-268 31.7 µM | NCI-H460 27.6 µM | MCF7 22.3 µM | NCI-H23 19.2 µM | SNB-75 14.5 µM | HCC 2998 21.4 µM | OVCAR-4 26.2 µM | NCI/ADR-RES 30 µM | A498 97.3 µM | SK-MEL-5 19.5 µM | HT-29 28.8 µM | K562 15.4 µM | SNB-19 34.8 µM

Nc1cc(OCc2ccccc2)c(OCc2ccccc2)cc1C=O
inactive: DU-145 31.6 µM | MDA-N 39.5 µM | SK-MEL-28 42.1 µM | SF-268 65.2 µM | NCI-H460 14.1 µM | MCF7 36.7 µM | SK-MEL-2 28.2 µM | NCI-H23 > 10 µM | SNB-75 52.8 µM | HCC 2998 8.57 µM | NCI/ADR-RES 33 µM | A498 11.6 µM | SK-OV-3 52.5 µM | SK-MEL-5 24.7 µM | HT-29 22.9 µM | COLO 205 24.7 µM | K562 44.4 µM | SNB-19 32.9 µM

CC(C)=C[C@@H]1C[C@H](n2cc(C)c(=O)[nH]c2=O)ON1CCO
inactive: DU-145 > 100 µM | MDA-N > 100 µM | SK-MEL-28 > 100 µM | SF-268 > 100 µM | NCI-H460 > 100 µM | MCF7 > 100 µM | SK-MEL-2 > 100 µM | SNB-75 > 100 µM | OVCAR-4 > 100 µM | NCI/ADR-RES > 100 µM | A498 > 100 µM | SK-OV-3 > 100 µM | SK-MEL-5 > 100 µM | HT-29 > 100 µM | COLO 205 > 100 µM | K562 > 100 µM | SNB-19 > 100 µM

CC1OC23CCCCC2C(C#N)(C#N)C1(C#N)C(=N)O3 (stereo not drawn)
inactive: DU-145 24.3 µM | MDA-N 18.4 µM | SK-MEL-28 21.7 µM | SF-268 24.7 µM | NCI-H460 17.9 µM | MCF7 20.7 µM | SK-MEL-2 19.9 µM | NCI-H23 21 µM | SNB-75 38.3 µM | HCC 2998 25.5 µM | NCI/ADR-RES 37.4 µM | A498 27.2 µM | SK-OV-3 > 100 µM | SK-MEL-5 16.3 µM | HT-29 27.1 µM | COLO 205 14.7 µM | K562 13.7 µM | SNB-19 22.8 µM
